Tests used:
[1] = system: expanded PBMCs from 46 HIV-1 patients; experiment: IFN-γ ELISpot assay using expanded PBMCs (screening of HLA-A*24:02-restricted epitopes); assay type: cell-based, human; details: for response rate: 46 HLA-A*24:02-positive HIV-1 patients, peptide 10^-5 M, overnight 16 to 18 h, positive >50 SFU per 10^6 cells; for peptide-specific response among patients with Nef135Y: eight patients with Nef135Y in plasma HIV RNA
Protocol: (§1) The gamma interferon enzyme-linked immunospot (IFN-γ ELISpot) assay was performed using patients’ PBMCs as previously described with some modifications. In brief, 96-well plates (Millipore) were coated with anti-gamma-interferon (IFN-γ) MAb 1-D1k (Mabtech) overnight at 4°C. Peptides were added directly to the wells at a final concentration of 10^-5 M. 5 ~ 10 × 10^4 cells were added to each well with a final volume of 100 μl of R10. For negative controls, PBMCs were incubated with R10 alone without peptides. After incubation at 37°C under 5% CO2 overnight (16 to 18 h), the plates were washed six times with phosphate-buffered saline containing 0.01% tween-20 (PBST). Biotinylated anti-IFN-γ MAb 7-B6-1 (Mabtech) was added, and was incubated for 2 hours at 37°C under 5% CO2. After washing with PBST, streptavidin-alkaline phosphatase conjugate (Mabtech) was added and the plates were kept at room temperature for 45 min. After washing with PBST, IFN-γ-producing cells were detected as dark spots after 10- to 20-min color reaction with 5-bromo-4-chloro-3-indolylphosphate and nitroblue tetrazolium by using AP Conjugate Substrate Kit (Bio-Rad). Spots were counted by KS ELISPOT compact (Carl Zeiss) and expressed as spot-forming units (SFU) per 10^6 PBMCs after subtracting the SFU of the negative control. Values with >50 SFU, >3 × mean SFU of negative control and > mean SFU of negative control + 3 SD per 10^6 input cells were considered as a positive response.
(§2) Since more cells were required for the immune response screening (Figure 1B) and functional avidity assays (Figures 4B and 6C), PBMCs were stimulated with anti-human CD3 antibody and the T cells were expanded for 2 to 3 weeks in R10/50 (BD Pharmingen). Culture media was changed to R10 two days prior to the assay date. For ex vivo IFN-γ ELISpot assay (Figures 5B and 6B), PBMCs were cultured for 6 hours in R10 media.

[2] = system: Nef126-10-specific CTL clone I30-1; experiment: Epitope recognition by CTL clone, peptide-pulsed 293FT-A24DRm-CY0 cells, IFN-γ ELISA; assay type: cell-based, human; details: 293FT-A24DRm-CY0 cells pulsed with serially diluted peptide (3^2 to 3^-6 μM), co-culture 18 to 24 h, three independent experiments
Protocol: (§3) The cells were washed twice with R10, then cultured with 1 × 10^6 autologous PBMCs and 4 × 10^6 irradiated (3300 rad) allogeneic PBMCs in R10. After 4 days, IL-2 was added to 50 U/ml and the cells were cultured for 2–3 weeks in R10/50. Peptide-specific CD8^+ T cells were enriched by MACS separation (Miltenyi) using tetramers. The sorted cells were cloned by limiting dilution to 3 or 10 cells/well in 96-well round-bottom tissue culture plates, and cultured with 10^5 irradiated allogeneic PBMCs in R10/50 containing 5 μg/ml PHA-L.
(§4) CTL-recognition of the epitopes was assessed by serially diluted peptides. On day 0, 293FT-A24DRm-CY0 cells were seeded onto 96-well Flat-bottom transparent plate (BD Falcon) so that the cultures become confluent on day 2. On day 2, each peptide was pulsed with concentrations from 3^2 to 3^-6 μM to the wells and incubated at 37°C under 5% CO2 for 1 h. Then CTLs (5,000 ~ 10,000 cells) were added and co-cultured at 37°C under 5% CO2 for 18 to 24 h. After the incubation, supernatants were harvested, and IFN-γ concentrations were quantified by Human IFN-γ ELISA Set (BD Bioscience). In each experiment, the IFN-γ value of samples was normalized to that of the highest wild type peptide concentration (9 μM). For example, each IFN-γ value of I30-1 CTL clone was divided by the value of the well pulsed with 9 μM Nef126-10(wt) peptide. Each assay was performed in duplicate and three independent experiments were conducted.

[3] = system: Nef134-10-specific CTL clone H27-9; experiment: as above; assay type: cell-based, human; details: 293FT-A24DRm-CY0 cells pulsed with serially diluted peptide (3^2 to 3^-6 μM), co-culture 18 to 24 h, three independent experiments
Protocol: as §3, §4

[4] = target: HLA-A*24:02 (Homo sapiens, UniProt P04439, D101N/D140Y/D185E/E176V/E190D/F33S/G103R/G107R/I119L/I121M/I306V/K335N/L105A/L180Q/L300P/N151K/N90K/Q86E/Q94H/R106L/R138H/R89G/T104I/T345S/V100E/W191G/Y123F); experiment: Peptide-HLA binding assay (T2-A24 stabilization assay); details: T2-A24 cells, 10^-4 to 10^-9 M peptide, normalized MFI (to 10^-4 M Nef134-8), three independent experiments
Protocol: Peptide binding to HLA-A*24:02 was assessed by using a T2-A24 stabilization assay as previously described. Briefly, after incubation for 16 hours at 26°C under 5% CO2, 2 × 10^5 T2-A24 cells were incubated with 10^-4 to 10^-9 M peptides for 1 h at 4°C. After keeping at 37°C under 5% CO2 for 3 hours, the cells were stained with biotinylated anti-human HLA-A9 monoclonal antibody (One Lambda), and streptavidin-APC conjugates (BD Pharmingen). The mean fluorescence intensity (MFI) was measured by FACSCalibur (Becton Dickinson). In each experiment, MFI of samples was normalized by the MFI of 10^-4 M control peptide, Nef134-8([…]). Three independent experiments were performed.

[5] = system: PBMCs; experiment: Ex vivo IFN-γ ELISpot assay; assay type: cell-based, human; details: for correlation between magnitude of peptide-specific response and pVL: 24 IMSUT cohort patients harboring 133I/135F or 133T/135F, ex vivo IFN-γ ELISpot with frozen PBMCs, Spearman's rank correlation; for patients with peptide-specific response, plasma viruses 133T/135F: patients with 133T/135F viruses (n = 10)
Protocol: as §1, §2

[6] = system: expanded PBMCs; experiment: Functional avidity assay (IFN-γ ELISpot, limiting dilution of peptide); assay type: cell-based, human; details: nine individuals harboring 133T/135F, peptide 10^-5 to 10^-12 M, compared to Nef126-10(8T10F), Mann-Whitney U-test p < 0.05
Protocol: Basically, the assay was performed using the same procedure with IFN-γ ELISpot assay as described above. PBMCs were cultured for 2 to 3 weeks in R10/50 after anti-human CD3 antibody (BD Pharmingen) stimulation, and culture media were changed from R10/50 to R10 two days before use. PBMCs were incubated with peptides at concentrations from 10^-5 to 10^-12 M, and SFU was calculated. The functional avidity to peptide dilutions was determined as a 50% of sigmoidal dose (SD50) SFU.
All data visualization and statistical analyses were performed using GraphPad Prism (GraphPad Software, La Jolla, CA). Student’s t-test and Mann–Whitney U-test were used to compare the antigen presentation and functional avidity between two groups, respectively. Spearman rank correlation was used to calculate the correlation between peptide-specific response and pVL. Dose at 50% response in sigmoidal dose–response curves (SD50) was calculated by drawing sigmoidal dose–response curves. Time to mutational escape, defined as the time elapsed between estimated date of HIV-1 infection and the first appearance of a full or partial amino acid change consistent with the specific escape mutation of interest, was calculated using Kaplan-Meier (survival) methods.

[7] = system: expanded PBMCs; experiment: Longitudinal IFN-γ ELISpot assay with serially diluted peptides in one individual; assay type: cell-based, human; details: one patient; for peptide-specific IFN-γ ELISpot response, latter time point: 2003/3/20, plasma virus 133T/135F
Protocol: as §1, with “In brief, 96-well plates (Millipore) were coated with anti-gamma-interferon (IFN-γ) MAb 1-D1k (Mabtech) overnight at 4°C.” left out, “Biotinylated anti-IFN-γ MAb 7-B6-1 (Mabtech) was added, and was incubated for 2 hours at 37°C under 5% CO2.” left out
as §2

Row | Substance | response rate [1] | IFN-γ production by CTL clone I30-1 [2] | binding to HLA-A*24:02 [4] | peptide-specific IFN-γ ELISpot response, latter time point [7] | also measured
1 | KYKLKHIVW [Gag28-9, reference compound] | 40.0% | Neither clone showed specificity |  |  | IFN-γ production by CTL clone H27-9 [3]: Neither clone showed specificity
2 | Nef126-10(8I10F) (NYTPGPGIRF) |  | strong responses at very low peptide concentration | dramatically improved its binding | robust responses | correlation between magnitude of peptide-specific response and pVL [5]: inversely correlated with pVL; patients with peptide-specific response, plasma viruses 133T/135F ([5]; ex vivo IFN-γ ELISpot, PBMCs): 7 of 10; functional avidity (SD50) of peptide-specific CTL responses [6]: significantly higher avidities
3 | Nef126-10(8T10F): Nef126-10 peptide with threonine at 8th position (I133T) and F at position 10 (NYTPGPGTRF) |  | strong responses at very low peptide concentration | did not significantly affect epitope-HLA binding | robust responses | correlation between magnitude of peptide-specific response and pVL [5]: not; patients with peptide-specific response, plasma viruses 133I/135F ([5]; ex vivo IFN-γ ELISpot, PBMCs, patients with 133I/135F viruses (n = 4)): 0 of 4; patients with peptide-specific response, plasma viruses 133T/135F ([5]; ex vivo IFN-γ ELISpot, PBMCs): Nine out of 10
4 | Nef126-10(wt): wild-type Nef126-10 peptide with Y at the C-terminus (NYTPGPGIRY) |  | only at high concentrations | lowers the affinity | detected only at high peptide concentrations | 
5 | Nef126-10: published HLA-A*24:02-restricted HIV-1 nef CTL epitope peptide, 10 amino acids from Nef126 (HXB2 numbering) (NYTPGPGVRY; UniProt P04601 126-135, looked up, fragment) | 50.0% |  |  |  | number of responders among patients harboring Nef135F ([1]; 35 patients harboring Nef135F): 23; peptide-specific response among patients with Nef135Y [1]: none of the eight patients; peptide-specific IFN-γ ELISpot response, earlier time point ([7]; 2000/9/4, plasma virus wild type around Nef126-10/Nef134-10): no Nef126-10-specific responses were observed
6 | Nef134-10: published HLA-A*24:02-restricted HIV-1 nef CTL epitope peptide, 10 amino acids from Nef134 (HXB2 numbering) (RYPLTFGWCY; UniProt P04601 134-143, looked up, fragment) | 80.4% |  |  | decreased but remained detectable | number of responders among patients harboring Nef135F ([1]; 35 patients harboring Nef135F): 28; response rate among patients harboring Nef135F ([1]; 35 patients harboring Nef135F): 80.0%; peptide-specific response among patients with Nef135Y [1]: all of them
7 | VPLDKDFRKY [reference compound] |  |  | might not bind to HLA-A*24:02 |  | 
